ChEMBL document CHEMBL3991601, “The target landscape of clinical kinase drugs” (Science, 2017)
The source made the active and inactive calls.

Legend:
[1] = biological target: Mitogen-activated protein kinase kinase kinase kinase 4 (Homo sapiens, UniProt O95819)
[2] = biological target: T1, Mitogen-activated protein kinase 15 (Homo sapiens, UniProt Q8TD08)
T1 sequence (Q8TD08 whole entry): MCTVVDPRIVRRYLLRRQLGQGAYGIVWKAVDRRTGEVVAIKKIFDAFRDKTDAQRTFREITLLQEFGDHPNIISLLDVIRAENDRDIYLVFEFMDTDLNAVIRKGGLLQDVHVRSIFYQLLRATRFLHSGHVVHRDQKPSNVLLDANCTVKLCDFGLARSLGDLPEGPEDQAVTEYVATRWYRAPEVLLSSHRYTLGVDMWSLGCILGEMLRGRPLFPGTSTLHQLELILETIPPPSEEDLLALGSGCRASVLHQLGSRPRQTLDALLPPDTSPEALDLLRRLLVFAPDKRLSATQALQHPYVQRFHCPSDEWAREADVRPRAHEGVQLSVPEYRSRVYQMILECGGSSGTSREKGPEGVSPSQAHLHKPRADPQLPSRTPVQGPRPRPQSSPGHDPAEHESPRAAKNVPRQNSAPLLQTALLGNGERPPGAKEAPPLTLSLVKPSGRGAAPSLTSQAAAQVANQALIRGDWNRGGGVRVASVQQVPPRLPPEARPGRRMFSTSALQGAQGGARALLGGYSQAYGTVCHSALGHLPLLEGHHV

Midasin = Midasin (Homo sapiens, UniProt Q9NU22)
Glycine--tRNA ligase = biological target: T2, Glycine--tRNA ligase (Homo sapiens, UniProt P41250)
T2 sequence (P41250 whole entry): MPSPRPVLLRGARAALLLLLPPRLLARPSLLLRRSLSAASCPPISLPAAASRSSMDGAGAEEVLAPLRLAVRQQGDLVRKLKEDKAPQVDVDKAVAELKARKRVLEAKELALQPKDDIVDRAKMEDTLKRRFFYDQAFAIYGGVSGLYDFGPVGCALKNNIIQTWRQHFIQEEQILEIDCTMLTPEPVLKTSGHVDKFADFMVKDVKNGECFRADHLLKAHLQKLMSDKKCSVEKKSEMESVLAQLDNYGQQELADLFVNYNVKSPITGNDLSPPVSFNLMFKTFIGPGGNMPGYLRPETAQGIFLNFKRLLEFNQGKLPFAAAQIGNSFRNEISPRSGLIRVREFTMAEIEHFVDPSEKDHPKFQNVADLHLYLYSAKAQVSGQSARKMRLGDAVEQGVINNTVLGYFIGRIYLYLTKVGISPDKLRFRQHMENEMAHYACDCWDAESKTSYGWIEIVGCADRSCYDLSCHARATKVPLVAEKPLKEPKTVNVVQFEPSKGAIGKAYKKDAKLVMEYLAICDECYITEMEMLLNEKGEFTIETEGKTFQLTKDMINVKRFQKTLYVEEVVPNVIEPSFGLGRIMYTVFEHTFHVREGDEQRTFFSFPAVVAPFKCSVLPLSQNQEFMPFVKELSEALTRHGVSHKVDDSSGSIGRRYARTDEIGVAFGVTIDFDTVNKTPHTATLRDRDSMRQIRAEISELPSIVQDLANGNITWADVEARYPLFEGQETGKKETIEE

[3] = biological target: Casein kinase I isoform epsilon (Homo sapiens, UniProt P49674)
Casein kinase I isoform epsilon, sequence (P49674 whole entry, canonical isoform): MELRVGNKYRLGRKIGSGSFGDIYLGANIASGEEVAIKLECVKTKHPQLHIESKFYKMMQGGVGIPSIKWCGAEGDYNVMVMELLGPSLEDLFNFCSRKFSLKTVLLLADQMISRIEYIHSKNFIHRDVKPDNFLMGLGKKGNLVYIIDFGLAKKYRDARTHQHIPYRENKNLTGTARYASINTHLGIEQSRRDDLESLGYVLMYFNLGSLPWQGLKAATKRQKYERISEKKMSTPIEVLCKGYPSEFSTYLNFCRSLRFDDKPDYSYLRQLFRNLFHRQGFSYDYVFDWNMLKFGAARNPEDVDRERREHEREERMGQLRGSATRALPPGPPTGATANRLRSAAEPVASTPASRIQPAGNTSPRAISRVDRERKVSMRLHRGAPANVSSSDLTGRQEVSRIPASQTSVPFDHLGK

[4] = biological target: Serine/threonine-protein kinase MRCK beta (Homo sapiens, UniProt Q9Y5S2)
[5] = biological target: Dual specificity tyrosine-phosphorylation-regulated kinase 1A (Homo sapiens, UniProt Q13627)
[6] = biological target: STE20-like serine/threonine-protein kinase (Homo sapiens, UniProt Q9H2G2)
STE20-like serine/threonine-protein kinase, sequence (Q9H2G2 whole entry): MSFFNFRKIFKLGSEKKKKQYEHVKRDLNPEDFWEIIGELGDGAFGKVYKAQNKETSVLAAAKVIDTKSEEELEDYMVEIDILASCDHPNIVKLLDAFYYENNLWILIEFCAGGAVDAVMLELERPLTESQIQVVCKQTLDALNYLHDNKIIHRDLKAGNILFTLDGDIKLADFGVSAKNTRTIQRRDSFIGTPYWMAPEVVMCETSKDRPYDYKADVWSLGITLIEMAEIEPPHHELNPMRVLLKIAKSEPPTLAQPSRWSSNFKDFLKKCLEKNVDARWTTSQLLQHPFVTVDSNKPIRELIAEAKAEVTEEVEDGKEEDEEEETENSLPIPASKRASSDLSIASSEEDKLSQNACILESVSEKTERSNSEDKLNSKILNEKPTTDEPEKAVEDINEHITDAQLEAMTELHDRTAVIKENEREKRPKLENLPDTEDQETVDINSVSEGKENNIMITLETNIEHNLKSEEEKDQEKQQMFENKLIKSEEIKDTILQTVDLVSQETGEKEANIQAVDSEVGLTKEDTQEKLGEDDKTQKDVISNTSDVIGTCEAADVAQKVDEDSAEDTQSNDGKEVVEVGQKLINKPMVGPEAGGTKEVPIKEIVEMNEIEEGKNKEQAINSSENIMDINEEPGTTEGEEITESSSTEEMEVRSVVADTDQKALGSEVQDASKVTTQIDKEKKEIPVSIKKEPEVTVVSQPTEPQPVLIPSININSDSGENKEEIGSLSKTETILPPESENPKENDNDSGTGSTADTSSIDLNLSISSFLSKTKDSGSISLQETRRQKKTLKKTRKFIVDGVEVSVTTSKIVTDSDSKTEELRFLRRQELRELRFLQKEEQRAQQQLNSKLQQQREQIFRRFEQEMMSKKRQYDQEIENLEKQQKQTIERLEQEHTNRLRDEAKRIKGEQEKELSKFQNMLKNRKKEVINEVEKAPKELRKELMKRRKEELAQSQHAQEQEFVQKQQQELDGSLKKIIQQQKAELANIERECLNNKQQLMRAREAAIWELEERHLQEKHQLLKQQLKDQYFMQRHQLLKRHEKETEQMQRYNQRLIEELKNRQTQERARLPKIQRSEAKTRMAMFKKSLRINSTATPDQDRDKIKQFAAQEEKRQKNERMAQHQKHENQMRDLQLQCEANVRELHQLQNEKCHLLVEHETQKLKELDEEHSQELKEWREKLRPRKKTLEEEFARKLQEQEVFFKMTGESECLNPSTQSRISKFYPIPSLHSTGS

[7] = biological target: GTP-binding nuclear protein Ran (Homo sapiens, UniProt P62826)
[8] = biological target: T3, Cysteine--tRNA ligase, cytoplasmic (Homo sapiens, UniProt P49589)
T3 sequence (P49589 whole entry): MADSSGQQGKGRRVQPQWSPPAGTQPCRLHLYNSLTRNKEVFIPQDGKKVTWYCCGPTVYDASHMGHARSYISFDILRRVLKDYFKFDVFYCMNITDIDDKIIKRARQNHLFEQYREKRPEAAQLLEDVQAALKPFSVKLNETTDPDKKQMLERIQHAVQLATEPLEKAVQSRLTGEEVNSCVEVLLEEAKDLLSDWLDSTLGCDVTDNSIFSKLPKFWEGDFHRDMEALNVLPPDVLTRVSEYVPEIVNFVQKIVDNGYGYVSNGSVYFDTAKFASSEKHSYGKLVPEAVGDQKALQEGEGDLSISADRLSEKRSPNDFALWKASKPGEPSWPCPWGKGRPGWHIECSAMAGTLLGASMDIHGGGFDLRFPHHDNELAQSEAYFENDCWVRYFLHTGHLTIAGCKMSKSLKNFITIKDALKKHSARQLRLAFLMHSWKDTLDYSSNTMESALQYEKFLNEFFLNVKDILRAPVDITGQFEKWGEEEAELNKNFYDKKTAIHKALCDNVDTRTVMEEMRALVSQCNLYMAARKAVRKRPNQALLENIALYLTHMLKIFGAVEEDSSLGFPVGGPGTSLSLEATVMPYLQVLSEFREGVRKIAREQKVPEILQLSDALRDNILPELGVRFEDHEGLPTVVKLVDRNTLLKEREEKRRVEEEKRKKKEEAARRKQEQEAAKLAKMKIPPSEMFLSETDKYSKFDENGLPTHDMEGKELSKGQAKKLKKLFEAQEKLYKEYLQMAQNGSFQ

[9] = biological target: Atypical kinase COQ8A, mitochondrial (Homo sapiens, UniProt Q8NI60)
Atypical kinase COQ8A, mitochondrial, sequence (Q8NI60 whole entry): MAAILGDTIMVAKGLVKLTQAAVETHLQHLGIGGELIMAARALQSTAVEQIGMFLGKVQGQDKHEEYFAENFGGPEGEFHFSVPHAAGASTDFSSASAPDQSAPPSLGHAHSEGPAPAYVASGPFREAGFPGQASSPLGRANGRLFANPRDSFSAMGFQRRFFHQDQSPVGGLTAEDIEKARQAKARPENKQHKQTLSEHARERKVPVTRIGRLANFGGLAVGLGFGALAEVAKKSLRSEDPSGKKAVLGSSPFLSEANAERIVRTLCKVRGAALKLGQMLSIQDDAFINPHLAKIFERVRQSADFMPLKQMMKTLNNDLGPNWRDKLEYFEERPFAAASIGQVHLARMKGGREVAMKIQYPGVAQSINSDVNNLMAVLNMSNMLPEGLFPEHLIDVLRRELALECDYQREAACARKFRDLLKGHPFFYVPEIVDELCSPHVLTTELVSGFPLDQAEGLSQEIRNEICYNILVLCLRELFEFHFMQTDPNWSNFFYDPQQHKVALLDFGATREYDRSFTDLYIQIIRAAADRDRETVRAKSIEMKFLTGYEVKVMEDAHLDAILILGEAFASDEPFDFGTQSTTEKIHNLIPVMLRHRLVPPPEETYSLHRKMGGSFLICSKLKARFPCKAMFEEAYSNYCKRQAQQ

[10] = biological target: Serine/threonine-protein kinase SIK2 (Homo sapiens, UniProt Q9H0K1)
Serine/threonine-protein kinase SIK2, sequence (Q9H0K1 whole entry): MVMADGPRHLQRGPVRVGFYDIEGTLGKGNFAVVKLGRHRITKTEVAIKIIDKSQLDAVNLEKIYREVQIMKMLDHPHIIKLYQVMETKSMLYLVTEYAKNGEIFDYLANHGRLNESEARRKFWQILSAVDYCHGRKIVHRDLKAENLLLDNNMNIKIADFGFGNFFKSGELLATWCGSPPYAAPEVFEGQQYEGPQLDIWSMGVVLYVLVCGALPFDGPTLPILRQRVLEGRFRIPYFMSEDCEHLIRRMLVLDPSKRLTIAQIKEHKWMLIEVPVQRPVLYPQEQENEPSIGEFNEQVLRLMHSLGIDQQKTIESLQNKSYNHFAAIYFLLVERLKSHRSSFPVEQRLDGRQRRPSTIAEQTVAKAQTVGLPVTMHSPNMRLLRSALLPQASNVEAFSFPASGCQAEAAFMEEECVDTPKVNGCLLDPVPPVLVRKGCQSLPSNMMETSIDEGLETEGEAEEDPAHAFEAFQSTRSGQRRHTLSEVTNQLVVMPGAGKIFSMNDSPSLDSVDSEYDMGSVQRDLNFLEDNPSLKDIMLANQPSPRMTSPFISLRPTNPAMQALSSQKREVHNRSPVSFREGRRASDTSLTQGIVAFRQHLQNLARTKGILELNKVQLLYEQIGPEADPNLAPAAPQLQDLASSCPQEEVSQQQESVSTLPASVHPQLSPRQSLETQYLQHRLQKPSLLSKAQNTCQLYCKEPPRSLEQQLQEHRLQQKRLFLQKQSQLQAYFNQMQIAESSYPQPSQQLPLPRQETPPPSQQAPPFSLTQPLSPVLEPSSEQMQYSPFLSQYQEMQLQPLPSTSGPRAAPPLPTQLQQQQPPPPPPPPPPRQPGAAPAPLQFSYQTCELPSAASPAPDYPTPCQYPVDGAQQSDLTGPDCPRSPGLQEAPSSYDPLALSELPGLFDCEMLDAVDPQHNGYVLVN
Further: in the data inactive means no Kd found up to 30 µM.

Mitogen-activated protein kinase kinase kinase kinase 4, sequence (O95819 whole entry): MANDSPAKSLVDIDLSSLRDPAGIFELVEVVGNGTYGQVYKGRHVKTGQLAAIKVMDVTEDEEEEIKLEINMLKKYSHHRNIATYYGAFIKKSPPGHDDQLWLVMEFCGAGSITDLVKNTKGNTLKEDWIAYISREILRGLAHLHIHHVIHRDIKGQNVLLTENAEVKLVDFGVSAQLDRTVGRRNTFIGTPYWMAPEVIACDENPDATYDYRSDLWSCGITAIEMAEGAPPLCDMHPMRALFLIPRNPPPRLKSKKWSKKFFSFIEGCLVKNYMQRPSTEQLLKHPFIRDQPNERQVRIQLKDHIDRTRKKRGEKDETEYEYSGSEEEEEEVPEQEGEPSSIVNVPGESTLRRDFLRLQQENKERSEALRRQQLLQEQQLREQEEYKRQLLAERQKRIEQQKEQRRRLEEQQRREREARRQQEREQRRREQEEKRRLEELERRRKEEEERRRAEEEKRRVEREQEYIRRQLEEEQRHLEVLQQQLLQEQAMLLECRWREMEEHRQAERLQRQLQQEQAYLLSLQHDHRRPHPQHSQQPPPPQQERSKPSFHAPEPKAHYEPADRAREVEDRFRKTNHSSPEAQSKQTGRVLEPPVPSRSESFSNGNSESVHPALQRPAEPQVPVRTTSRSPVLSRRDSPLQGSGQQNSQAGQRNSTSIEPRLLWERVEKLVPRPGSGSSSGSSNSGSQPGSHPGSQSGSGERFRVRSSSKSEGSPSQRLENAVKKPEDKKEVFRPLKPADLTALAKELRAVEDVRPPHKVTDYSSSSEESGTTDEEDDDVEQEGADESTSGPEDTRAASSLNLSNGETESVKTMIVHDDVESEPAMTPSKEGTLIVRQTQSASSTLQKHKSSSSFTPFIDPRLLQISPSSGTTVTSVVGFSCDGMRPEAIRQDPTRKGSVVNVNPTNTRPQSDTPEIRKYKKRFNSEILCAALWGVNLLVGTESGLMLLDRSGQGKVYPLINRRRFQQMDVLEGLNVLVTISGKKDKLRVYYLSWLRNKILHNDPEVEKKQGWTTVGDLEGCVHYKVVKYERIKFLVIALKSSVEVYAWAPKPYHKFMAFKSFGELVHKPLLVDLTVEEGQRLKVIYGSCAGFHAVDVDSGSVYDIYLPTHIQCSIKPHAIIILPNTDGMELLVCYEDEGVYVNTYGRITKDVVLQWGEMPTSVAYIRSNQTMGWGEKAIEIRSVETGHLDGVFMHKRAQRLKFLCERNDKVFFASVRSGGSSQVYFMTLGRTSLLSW

Structure (SMILES)	Kd [1]	Kd [2]	Kd (Midasin)	Kd (Glycine--tRNA ligase)	Kd [3]	Kd [4]	Kd [5]	Kd [6]	Kd [7]	Kd [8]	Kd [9]	Kd [10]
CC(C)Nc1cc(-c2c[nH]c(C(=O)N[C@H](CO)c3cccc(Cl)c3)c2)c(Cl)cn1 [ULIXERTINIB]	> 30 µM (inactive)	> 30 µM (inactive)	> 30 µM (inactive)	> 30 µM (inactive)	> 30 µM (inactive)	> 30 µM (inactive)	> 30 µM (inactive)	> 30 µM (inactive)	> 30 µM (inactive)	> 30 µM (inactive)	> 30 µM (inactive)	> 30 µM (inactive)
COc1cc2nccc(Oc3ccc(NC(=O)NC4CC4)c(Cl)c3)c2cc1C(N)=O [LENVATINIB]	> 30 µM (inactive)	> 30 µM (inactive)	> 30 µM (inactive)	> 30 µM (inactive)		> 30 µM (inactive)	> 30 µM (inactive)	3.85 µM (active)	> 30 µM (inactive)	> 30 µM (inactive)	> 30 µM (inactive)	> 30 µM (inactive)
Cc1ccc(-n2nc(C(C)(C)C)cc2NC(=O)NCc2cc(F)ccc2Oc2ccc3c(cnn3CCO)c2)cc1 [PEXMETINIB]	0.222 µM (active)	> 30 µM (inactive)	> 30 µM (inactive)	> 30 µM (inactive)	> 30 µM (inactive)	> 30 µM (inactive)	> 30 µM (inactive)	> 30 µM (inactive)	> 30 µM (inactive)	> 30 µM (inactive)	> 30 µM (inactive)	> 30 µM (inactive)
OCCn1cc(-c2cnc3nnn(Cc4ccc5ncccc5c4)c3n2)cn1 [PF-04217903]		> 30 µM (inactive)	> 30 µM (inactive)	> 30 µM (inactive)	> 30 µM (inactive)	> 30 µM (inactive)		> 30 µM (inactive)	> 30 µM (inactive)	> 30 µM (inactive)	> 30 µM (inactive)	> 30 µM (inactive)
CC(=O)Nc1cccc(-n2c(=O)n(C3CC3)c(=O)c3c(Nc4ccc(I)cc4F)n(C)c(=O)c(C)c32)c1 [TRAMETINIB]	> 30 µM (inactive)	> 30 µM (inactive)	> 30 µM (inactive)	> 30 µM (inactive)	> 30 µM (inactive)	> 30 µM (inactive)	> 30 µM (inactive)	> 30 µM (inactive)	> 30 µM (inactive)	> 30 µM (inactive)	> 30 µM (inactive)	> 30 µM (inactive)
Cc1cc(Nc2cc(N3CCN(C)CC3)nc(/C=C/c3ccccc3)n2)n[nH]1 [ENMD-2076]		> 30 µM (inactive)	> 30 µM (inactive)	> 30 µM (inactive)	> 30 µM (inactive)	> 30 µM (inactive)		> 30 µM (inactive)	> 30 µM (inactive)	> 30 µM (inactive)	> 30 µM (inactive)	> 30 µM (inactive)
COc1cc2nccc(Oc3ccc(NC(=O)Nc4cc(C)on4)c(Cl)c3)c2cc1OC [TIVOZANIB]	> 30 µM (inactive)		> 30 µM (inactive)	> 30 µM (inactive)		> 30 µM (inactive)	> 30 µM (inactive)	> 30 µM (inactive)	> 30 µM (inactive)	> 30 µM (inactive)	> 30 µM (inactive)	> 30 µM (inactive)
